1 molecule from paper PMC4279406, “Simultaneous targeting of PI3Kδ and a PI3Kδ-dependent MEK1/2-Erk1/2 pathway for therapy in pediatric B-cell acute lymphoblastic leukemia” (Oncotarget, 2014) can be followed below.

The subject of experiment [1] is PI3Kα (IGF-1-stimulated MEF cells). The experiment in a line: IGF-1-induced Akt phosphorylation in MEF cells. To be noted: up to 0.5 μM; IGF-1 100 ng/ml; 1 h pre-incubation. In kind it is cell-based, murine. The procedure:
In fibroblasts, signals from the insulin-like growth factor 1 (IGF-1) receptor are mediated by PI3Kα, while lysophosphatidic acid (LPA) stimulates G-protein coupled receptor (GPCR) signals via PI3Kβ[26]. After being pre-incubated with X-370, murine embryonic fibroblasts cultured in serum-free medium were stimulated with IGF-1 or LPA. […] Either PI3Kδ or PI3Kγ can be activated in THP-1 monocytes dependent on the stimulating ligand, among which macrophage colony stimulating factor (M-CSF/CSF-1) activates RTK-coupled PI3Kδ, while monocyte chemoattractant protein-1 (MCP-1) activates PI3Kγ [24]. Accordingly, THP-1 cells cultured in serum-free medium were stimulated with MCP-1 or M-CSF in the presence of X-370 and phosphorylated Akt was measured.
Cell lysates were probed with indicated antibodies. The IC50 values were calculated based on relative band intensity measured with ImageQuant™ TL (GE Healthcare Life Sciences, Piscataway, NJ) (B). Data shown are mean values from three independent experiments. (C, D, E, F) X-370 blocked stimuli-triggered PI3Kδ activation. MEF cells and THP-1 were starved in serum-free medium for 12 h or 4 h respectively and X-370 were added for an additional 1 h treatment following stimulation of IGF-1 at 100 ng/ml for MEF cells (C), LPA at 10 μM for MEF cells (D), MCP-1 at 100ng/ml for THP-1 (E) and M-CSF at 50 ng/ml for THP-1 (F). […]

Another experiment deals with Raji cells. The experiment in a line: BrdU incorporation assay. The settings on record: 1 μM, 24 h. It counts as cell-based, human. The procedure: Simultaneous targeting of PI3Kδ and a PI3Kδ-dependent MEK1/2-Erk1/2 pathway for therapy in pediatric B-cell acute lymphoblastic […]
Cells were treated as indicated conditions and then subjected to lysate to perform standard Western blot as described previously1. Briefly, whole-cell lysates and SDS-loading buffer diluted cell fractions were analyzed on SDS-PAGE gels. Transfer to nitrocellulose membranes, nonfat milk blocking, probing with indicated primary antibodies and the corresponding HRP-conjugated second antibodies.
Chemiluminescence were performed and captured using ImageQuant LAS 4000 (GE healthcare Life Sciences, Piscataway, NJ, USA) and band intensity was measure both with ImageQuant™ TL (GE Healthcare Life Sciences) 2.
Caspase 3/7 activity assay
Raji cells were treated with or without X-370 at 1 μM, 5μM and 10 μM for 24, 48 and 72 hours, thenwere measured using the Caspase-Glo® 3/7 Assay (Promega, US) following the protocol and relative caspase-3/7 activity was normalized to cell number which DMSO control was the base line.
5-bromo-2'-deoxyuridine (BrdU) incorporation Assay
5-bromo-2'-deoxyuridine (BrdU) incorporation was performed using FITC BrdU Flow Kit (BD Pharmingen, San Diego, CA) according to the provided protocol.
Figure S1;. CAL-101 docked to the crystal structure of PI3Kδ. […]
On the technique in general: Uptake of a labelled nucleoside into DNA is a usual measure of proliferation.

Consider `O=C(N1CCCC1)N1CCC(n2cnc3c(-n4c(C(F)F)nc5ccccc54)nc(N4CCOCC4)nc32)CC1` [X-370], for which the “IGF-1-induced Akt phosphorylation” value in experiment [1] is “partially inhibited”. Further, in the experiment with Raji cells, the “DNA synthesis (BrdU incorporation)” value is given as “readily inhibited”.
